Measurements reported in patent US20110280848A1, “COMPOSITION COMPRISING CHICORIC ACID AND/OR DERIVATIVES THEREOF” (NESTEC S.A., priority 2009, published 2011).

System: Nrf2-ARE pathway (AREc32 cells)
Assay: Antioxidant Responsive Element (ARE) luciferase assay
Assay type: cell-based, human
Conditions: for F/C (Nrf2-luciferase reporter activity): 24 h
Description: The pGL-8×ARE which contains eight copies of the ARE present in rat glutathione-S-transferase A2 (GSTA2) along with the pcDNA3.1 plasmid containing the neomycin selectable marker was stably transfected into human MCF7 cells (Wang et al., Cancer Res. 66, 10983-10994, 2006). ARE (antioxidant-responsive element) is the binding site of the transcription factor Nrf2 which regulates the genes involved in detoxification and endogenous defense against oxidative stress. The plasmid pGL-8×ARE contains a luciferase gene downstream of the eight Nrf2 binding sites that allows monitoring Nrf2 activity. For treatment with chicoric acid and related compounds, the AREc 32 cells were seeded 96-well microtiter plates in DMEM growth medium. After treatment of 24 h with the different preparations, firefly luciferase activity was determined.

O=C(/C=C/c1ccc(O)c(O)c1)O[C@@H](C(=O)O)[C@@H](OC(=O)/C=C/c1ccc(O)c(O)c1)C(=O)O [chicoric acid]
F/C (Nrf2-luciferase reporter activity) (100 μg/ml): 2580 | F/C (Nrf2-luciferase reporter activity) (200 μg/ml): 4364 | F/C (Nrf2-luciferase reporter activity) (400 μg/ml): 8810 | F/C (Nrf2-luciferase reporter activity) (600 μg/ml): 558 | F/C (Nrf2-luciferase reporter activity) (800 μg/ml): 251 | F/C (Nrf2-luciferase reporter activity) (1000 μg/ml): 346 | Response in Nrf2-luciferase reporter activity (saturation inactivation response at higher doses): positive dose-dependent response
